Test results: PMC3091653, “A new family of phosphoinositide phosphatases in microorganisms: identification and biochemical analysis” (BMC Genomics, 2010)

Target: T1, LM1 (Leishmania major, UniProt Q4QBX1)
T1 construct: gene LMJF_22_0250; pET14, His6-tagged (kept), frame shift of original clone removed by mutagenesis; E. coli BL21 (DE3)
Assay: malachite green phosphate release
Assay type: biochemical
Conditions: pH 6, 37°C, 100-125 μM substrate

T1 sequence (Q4QBX1 entry or part of it): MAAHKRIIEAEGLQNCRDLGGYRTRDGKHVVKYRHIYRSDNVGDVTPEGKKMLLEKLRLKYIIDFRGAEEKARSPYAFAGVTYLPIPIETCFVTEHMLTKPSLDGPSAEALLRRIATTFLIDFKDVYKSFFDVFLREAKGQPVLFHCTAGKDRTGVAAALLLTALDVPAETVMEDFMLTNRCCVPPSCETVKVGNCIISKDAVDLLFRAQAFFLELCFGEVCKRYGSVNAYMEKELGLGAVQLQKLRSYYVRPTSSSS

`CCCCCCCC(=O)OC[C@H](COP(=O)(O)O[C@@H]1[C@H](O)[C@H](OP(=O)(O)O)[C@@H](O)[C@H](O)[C@H]1O)OC(=O)CCCCCCC` [diC8-PI(3)P] was tested, and the “malachite green phosphate release” value was “Both Lmo1935 and LM1 show also activity towards mono-phosphorylated PIs”.
